Source: ChEMBL document CHEMBL5465560, “Selectivity Literature for EUbOPEN Chemogenomic Library” (2024)

How the values were obtained:
[1] = target: T1, Mitogen-activated protein kinase kinase kinase 5 (Homo sapiens) (UniProt Q99683); test: Selectivity interaction (KinomeScan (DiscoverX)) EUB0000607a MAP3K5; details: at 10 µM
T1 sequence (whole entry): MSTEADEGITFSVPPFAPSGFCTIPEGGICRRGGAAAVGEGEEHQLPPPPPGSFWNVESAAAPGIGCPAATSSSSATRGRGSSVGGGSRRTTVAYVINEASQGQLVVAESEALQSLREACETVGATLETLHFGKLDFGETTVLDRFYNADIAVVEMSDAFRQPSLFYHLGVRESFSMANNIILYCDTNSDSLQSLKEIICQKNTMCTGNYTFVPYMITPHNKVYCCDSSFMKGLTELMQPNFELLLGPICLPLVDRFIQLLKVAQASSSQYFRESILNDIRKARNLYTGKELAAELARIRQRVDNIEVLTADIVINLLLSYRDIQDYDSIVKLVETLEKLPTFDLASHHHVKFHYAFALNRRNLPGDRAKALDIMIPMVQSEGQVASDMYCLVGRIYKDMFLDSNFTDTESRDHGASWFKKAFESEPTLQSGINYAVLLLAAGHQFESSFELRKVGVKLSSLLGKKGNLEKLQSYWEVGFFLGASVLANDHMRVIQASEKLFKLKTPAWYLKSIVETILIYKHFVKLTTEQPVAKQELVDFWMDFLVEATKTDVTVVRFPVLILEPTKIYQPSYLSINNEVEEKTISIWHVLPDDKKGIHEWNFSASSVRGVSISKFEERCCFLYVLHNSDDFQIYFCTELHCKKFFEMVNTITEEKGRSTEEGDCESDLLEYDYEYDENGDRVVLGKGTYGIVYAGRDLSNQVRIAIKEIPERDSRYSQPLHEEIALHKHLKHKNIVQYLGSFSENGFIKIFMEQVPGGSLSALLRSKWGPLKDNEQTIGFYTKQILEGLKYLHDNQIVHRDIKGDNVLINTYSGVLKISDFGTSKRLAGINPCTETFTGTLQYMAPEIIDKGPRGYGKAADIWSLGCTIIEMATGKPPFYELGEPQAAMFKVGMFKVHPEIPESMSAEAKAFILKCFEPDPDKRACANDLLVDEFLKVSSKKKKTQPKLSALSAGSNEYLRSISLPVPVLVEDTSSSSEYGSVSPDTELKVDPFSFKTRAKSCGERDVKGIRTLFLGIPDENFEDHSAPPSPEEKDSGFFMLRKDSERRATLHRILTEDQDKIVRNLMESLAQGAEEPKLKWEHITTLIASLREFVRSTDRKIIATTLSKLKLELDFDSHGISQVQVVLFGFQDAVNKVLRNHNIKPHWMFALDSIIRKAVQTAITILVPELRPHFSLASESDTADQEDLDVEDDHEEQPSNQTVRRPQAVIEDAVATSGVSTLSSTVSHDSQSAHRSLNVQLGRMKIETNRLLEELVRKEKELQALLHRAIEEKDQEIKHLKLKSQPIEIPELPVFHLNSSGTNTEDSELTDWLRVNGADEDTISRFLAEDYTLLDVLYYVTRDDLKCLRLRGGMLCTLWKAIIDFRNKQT

[2] = target: Tyrosine-protein kinase Fer (Homo sapiens) (UniProt P16591); test: Selectivity interaction (ActivX KiNativ screen (ex vivo kinase selectivity in human PBMCs)) EUB0001619a FER; format: cell-based; details: PBMC, at 1 µM
Chain of Tyrosine-protein kinase Fer (Homo sapiens) (P16591 whole entry, looked up): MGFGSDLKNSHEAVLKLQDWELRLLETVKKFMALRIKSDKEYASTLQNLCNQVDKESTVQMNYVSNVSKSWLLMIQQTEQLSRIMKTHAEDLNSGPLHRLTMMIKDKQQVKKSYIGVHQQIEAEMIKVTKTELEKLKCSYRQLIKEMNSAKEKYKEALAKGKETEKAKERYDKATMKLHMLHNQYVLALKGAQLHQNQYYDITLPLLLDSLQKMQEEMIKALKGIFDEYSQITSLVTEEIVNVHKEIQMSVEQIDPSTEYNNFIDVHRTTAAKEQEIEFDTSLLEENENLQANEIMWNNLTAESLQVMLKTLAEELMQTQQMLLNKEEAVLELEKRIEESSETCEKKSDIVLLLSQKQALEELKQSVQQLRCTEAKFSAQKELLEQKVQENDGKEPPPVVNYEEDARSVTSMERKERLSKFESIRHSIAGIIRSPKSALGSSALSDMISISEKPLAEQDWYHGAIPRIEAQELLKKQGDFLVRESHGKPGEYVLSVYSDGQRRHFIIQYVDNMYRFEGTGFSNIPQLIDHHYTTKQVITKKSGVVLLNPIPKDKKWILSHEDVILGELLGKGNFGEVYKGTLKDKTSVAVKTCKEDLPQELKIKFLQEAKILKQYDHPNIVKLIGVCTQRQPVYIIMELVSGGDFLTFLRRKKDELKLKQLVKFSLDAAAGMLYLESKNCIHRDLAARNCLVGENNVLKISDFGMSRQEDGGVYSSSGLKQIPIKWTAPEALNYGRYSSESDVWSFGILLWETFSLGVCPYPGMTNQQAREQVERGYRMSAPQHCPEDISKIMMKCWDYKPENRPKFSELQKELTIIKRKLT

[3] = target: T2, Bone morphogenetic protein receptor type-2 (Homo sapiens) (UniProt Q13873); test: Selectivity interaction (KinomeScan (DiscoverX)) EUB0000229b BMPR2; details: at 10 µM
T2 sequence (whole entry): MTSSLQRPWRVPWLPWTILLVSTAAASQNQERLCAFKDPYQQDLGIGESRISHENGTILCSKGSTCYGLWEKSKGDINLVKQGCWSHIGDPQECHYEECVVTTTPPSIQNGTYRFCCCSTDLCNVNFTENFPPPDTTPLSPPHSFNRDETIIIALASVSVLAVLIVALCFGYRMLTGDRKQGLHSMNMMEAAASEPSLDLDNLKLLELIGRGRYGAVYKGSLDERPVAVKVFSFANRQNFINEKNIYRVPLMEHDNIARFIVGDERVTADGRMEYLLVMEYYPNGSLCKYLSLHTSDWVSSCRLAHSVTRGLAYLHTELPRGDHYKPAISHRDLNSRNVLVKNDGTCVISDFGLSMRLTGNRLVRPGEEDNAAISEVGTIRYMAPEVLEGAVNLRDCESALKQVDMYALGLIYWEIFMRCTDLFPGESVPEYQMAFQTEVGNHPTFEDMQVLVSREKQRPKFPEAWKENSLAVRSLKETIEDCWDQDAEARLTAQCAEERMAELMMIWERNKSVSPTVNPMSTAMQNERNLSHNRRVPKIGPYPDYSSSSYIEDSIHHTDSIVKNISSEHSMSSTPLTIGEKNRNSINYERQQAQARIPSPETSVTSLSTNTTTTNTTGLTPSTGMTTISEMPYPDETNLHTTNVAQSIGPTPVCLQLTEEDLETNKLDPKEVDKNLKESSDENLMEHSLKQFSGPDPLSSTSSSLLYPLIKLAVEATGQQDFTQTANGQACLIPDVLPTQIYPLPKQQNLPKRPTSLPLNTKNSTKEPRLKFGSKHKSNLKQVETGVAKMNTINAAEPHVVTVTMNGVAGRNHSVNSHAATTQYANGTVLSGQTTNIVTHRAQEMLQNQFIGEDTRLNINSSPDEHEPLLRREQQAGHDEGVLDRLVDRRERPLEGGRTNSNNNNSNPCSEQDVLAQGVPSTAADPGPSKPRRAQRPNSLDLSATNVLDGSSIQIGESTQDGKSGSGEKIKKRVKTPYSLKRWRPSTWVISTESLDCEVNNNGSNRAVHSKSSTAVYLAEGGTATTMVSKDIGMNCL

[4] = target: MAP kinase-interacting serine/threonine-protein kinase 1 (Homo sapiens) (UniProt Q9BUB5); test: Selectivity interaction (ProQinase) EUB0000171b MKNK1
Chain of MAP kinase-interacting serine/threonine-protein kinase 1 (Homo sapiens) (Q9BUB5 whole entry, looked up): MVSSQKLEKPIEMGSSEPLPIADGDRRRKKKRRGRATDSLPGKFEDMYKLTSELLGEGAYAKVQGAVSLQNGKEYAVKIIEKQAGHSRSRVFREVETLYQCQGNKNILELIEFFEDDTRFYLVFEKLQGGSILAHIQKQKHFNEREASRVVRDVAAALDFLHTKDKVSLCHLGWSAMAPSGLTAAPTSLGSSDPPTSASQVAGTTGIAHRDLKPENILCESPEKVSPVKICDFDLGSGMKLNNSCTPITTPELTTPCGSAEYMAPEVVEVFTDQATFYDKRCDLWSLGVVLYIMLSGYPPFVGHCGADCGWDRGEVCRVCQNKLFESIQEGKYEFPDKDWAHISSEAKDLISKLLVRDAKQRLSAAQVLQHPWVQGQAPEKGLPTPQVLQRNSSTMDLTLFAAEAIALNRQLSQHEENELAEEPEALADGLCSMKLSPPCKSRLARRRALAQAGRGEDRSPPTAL

[5] = target: T3, Serine/threonine-protein kinase Sgk2 (Homo sapiens) (UniProt Q9HBY8); test: Selectivity interaction (KinomeScan (DiscoverX)) EUB0000695a SGK2; details: at 100 nM
T3 sequence (whole entry): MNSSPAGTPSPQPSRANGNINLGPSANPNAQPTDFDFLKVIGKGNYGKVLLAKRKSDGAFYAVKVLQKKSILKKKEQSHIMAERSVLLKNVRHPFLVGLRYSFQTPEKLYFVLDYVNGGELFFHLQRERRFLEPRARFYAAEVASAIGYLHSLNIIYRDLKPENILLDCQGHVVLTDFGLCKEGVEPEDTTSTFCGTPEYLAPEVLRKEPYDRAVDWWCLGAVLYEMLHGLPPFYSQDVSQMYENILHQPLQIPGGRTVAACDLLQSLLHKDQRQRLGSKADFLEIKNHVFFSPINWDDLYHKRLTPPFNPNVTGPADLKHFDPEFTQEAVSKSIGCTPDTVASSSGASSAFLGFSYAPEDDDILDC

SMILES: CNC(=O)Nc1ccc(-c2nc(N3CC4CCC(C3)O4)c3cnn(C4CCC5(CC4)OCCO5)c3n2)cc1
- % of control [1]: 85%

SMILES: N#Cc1cccc(-c2c[nH]c3ncnc(N4CCOCC4)c23)c1
- % of inhibition [2]: 2%

SMILES: COc1cc(N(C)c2ccnc3ccc(C(F)(F)F)cc23)cc(OC)c1OC
- % binding [3]: 94%

SMILES: C=CC(=O)Nc1cccc(C(=O)Nc2ccc(Nc3cc(-c4[nH]c(SC)nc4C)ccn3)cc2)c1
- % of control ([4]; at 1 µM): 90%
- % of control ([4]; at 5 µM): 55%

SMILES: Cc1cc(F)c(C(=O)Nc2cccc(-c3nncn3C(C)C)n2)cc1-n1cnc(C2CC2)c1
- % of control [5]: 100%
